Holding throughout (type): cell-based
The test system of data set [1] is C. albicans ATCC 10231. The data set is described as follows: Broth microdilution MIC/MFC. The note with it: Candida albicans, ATCC10231. How it is done: (§1) Two Gram-positive (S. aureus ATCC 29213 and S. epidermidis ATCC 35984) and two Gram-negative (E. coli ATCC 8739 and P. aeruginosa ATCC 9027) strains, and one fungal strain (C. albicans ATCC 10231) were used for the detection of antibacterial activity of carvacrol, NAC, Ac-Cys(Allyl)-OH, and carvacrol codrugs 1–10. All tested compounds were dissolved in 20% DMSO to prepare the stock solution (100 mg/mL). The final concentration of DMSO in each well appeared to be not toxic for all studied microorganisms, as confirmed by the solvent control test included in the study.
The MIC detection of C. albicans ATCC 10231 was performed using the broth microdilution method according to EUCAST guidelines in RPMI 1640 plus 2% glucose with a final inoculum of 1–5 x 10^5 CFU/mL for 24–48 h at 37°C. The Minimum Fungicidal Concentration (MFC) was determined as the lowest concentration of substances at which no fungal growth occurred on Sabouraud agar plates.
(§2) Data were obtained from at least three independent experiments performed in duplicate. The susceptibility of the bacterial strains against ciprofloxacin was used as an internal standard during MIC determinations.

For data set [2], the system named is E. coli ATCC 8739. The data set is described as follows: Antibiofilm assay on established biofilm (BIC/BEC). The protocol: (§3) The efficacy on established biofilm was evaluated by determining Biofilm Inhibitory Concentration (BIC) and Biofilm Eradication Concentration (BEC) according to the method described by Johnson et al. with some modifications. Bacterial suspensions, grown in Tryptic soy broth supplemented with 0.5% (v/v) glucose at logarithmic phase, as well as C. albicans grown in RPMI 1640 plus 2% glucose, were incubated on flat-bottomed microtiter plates at a concentration of 5 x 10^5 CFU/mL. After 24 h of incubation at 37°C, the planktonic cells were gently removed and wells were washed with sterile phosphate-buffered saline solution (PBS) pH 7.3 and filled with carvacrol, carvacrol codrug 4, Ac-Cys(Allyl)-OH with dilutions ranging from the MIC values to a maximum concentration of 50 mg/mL. The OD600 was measured at time 0 and after incubation for 24 h at 37°C. The BIC values were determined as the lowest concentrations where no growth occurred in the supernatant fluid, confirmed by no increase in optical density compared with the initial reading. The BEC values were determined as the lowest concentrations at which no bacterial growth occurred on Tryptic soy agar for bacteria and on Sabouraud agar for C. albicans. Data were obtained from at least three independent experiments performed in duplicate.

Data set [3] deals with S. epidermidis ATCC 35984. The data set is described as follows: Antibiofilm assay on established biofilm (BIC/BEC). How it is done:
as §3

Data set [4] relates to C. albicans ATCC 10231. The data set is described as follows: Antibiofilm assay on established biofilm (BIC/BEC). The protocol:
as §3

Data set [5] relates to S. aureus ATCC 29213. The data set is described as follows: Antibiofilm assay on established biofilm (BIC/BEC). Particulars: S. aureus ATCC 29213 established biofilm. The protocol:
as §3

Data set [6] has as its system P. aeruginosa ATCC 9027. The data set is described as follows: Antibiofilm assay on established biofilm (BIC/BEC). How it is done: as §3
For data set [7], the system named is E. coli ATCC 8739. The data set is described as follows: Broth microdilution MIC/MBC on planktonic cells. Particulars: Escherichia coli. How it is done:
as §1
(§4) The effects of carvacrol codrugs 1–10 and reference compounds on planktonic cells were evaluated by Minimum Inhibitory Concentration (MIC) and Minimum Bactericidal Concentration (MBC) determination using the broth microdilution method according to EUCAST guidelines. Bacterial suspensions, grown in Mueller–Hinton Broth (MHB) at logarithmic phase, were incubated on microtiter plates at a concentration of 5 x 10^5 CFU/mL, with several dilutions (0.07–40 mg/mL) for 24 h at 37°C. The MIC was defined as the lowest concentration of substances giving a complete inhibition of visible growth in comparison with a control well, and the MBC was determined as the lowest concentration at which no bacterial growth occurred on Mueller–Hinton Agar plates.
as §2
(In general: Dilution methods test growth across graded concentrations, often in twofold steps.)

For data set [8], the system named is S. epidermidis ATCC 35984. The data set is described as follows: Broth microdilution MIC/MBC on planktonic cells. Particulars: Staphylococcus epidermidis. How it is done:
as §1, §4, §2

The subject of data set [9] is S. aureus ATCC 29213. The data set is described as follows: Broth microdilution MIC/MBC on planktonic cells. Particulars: Staphylococcus aureus. How it is done:
as §1, §4, §2

For data set [10], the system named is P. aeruginosa ATCC 9027. The data set is described as follows: Broth microdilution MIC/MBC on planktonic cells. Particulars: Pseudomonas aeruginosa. How it is done:
as §1, §4, §2

The subject of data set [11] is human red blood cells (h-RBC). The data set is described as follows: Hemolytic activity. The note with it: 4% h-RBC, 1 h at 37°C. How it is done: Experimental protocols to study hemolysis on human red cells were approved by Ethics Committee of the University “G. d’Annunzio” Chieti-Pescara. Human red cells were from two volunteers, who signed the informed consent for this study.
Hemolytic activity of carvacrol codrugs 1–10 was tested against human red blood cells (h-RBC). Fresh human blood, collected with EDTA, was centrifuged at 3000 rpm for 5 min then washed three times with PBS pH 7.3. Red blood cells were diluted to 4% in PBS and incubated with different codrugs concentrations ranging from 25 to 0.05 mg/mL. After 1 h of incubation at 37°C, the suspensions were sedimented by centrifugation and the release of hemoglobin was determined by absorbance measurement at 405 nm and compared with a 0% hemolysis control (PBS) and a 100% hemolysis control (PBS with 1% v/v Triton X-100). The percentage of hemolysis was calculated using the following equation: Hemolysis (%) = [(OD405sample - OD4050% lysis control)/(OD405100% lysis control - OD4050% lysis contro)] X 100

[12] abbreviates: C. albicans ATCC 10231, 24–48 h at 37°C, read-out: MIC.
The mark [13] stands for this setting: C. albicans ATCC 10231, read-out: MFC.
Where [14] appears, read: ATCC8739, E. coli ATCC 8739, 24 h at 37°C, read-out: MIC.
Where [15] appears, read: ATCC8739, E. coli ATCC 8739, read-out: MBC.
[16] abbreviates: ATCC35984, S. epidermidis ATCC 35984, 24 h at 37°C, read-out: MIC.
[17] abbreviates: ATCC35984, S. epidermidis ATCC 35984, read-out: MBC.
[18] abbreviates: ATCC29213, S. aureus ATCC 29213, 24 h at 37°C, read-out: MIC.
[19] abbreviates: ATCC29213, S. aureus ATCC 29213, read-out: MBC.
[20] abbreviates: ATCC9027, P. aeruginosa ATCC 9027, 24 h at 37°C, read-out: MIC.
[21] abbreviates: ATCC9027, P. aeruginosa ATCC 9027, read-out: MBC.

≈ marks a conversion by molar mass, not a printed value. Read-outs that look alike come from different tables or passages of the source. A value given as a limit tells only on which side of the number the result lay.

For the compound `Cc1ccc(C(C)C)cc1O` [Carvacrol, 2-methyl-5-[1-methylethyl]phenol], in data set [1], the MFC (as a rule, the smallest concentration meeting the test's criterion for killing the fungus) is 600 µg/mL (≈ 3.99 mM). Moreover, the minimal inhibitory concentration (MIC) – broadly, the least concentration at which growth counts as inhibited – amounted to 300 µg/mL (≈ 2 mM) in data set [1]; 600 µg/mL (≈ 3.99 mM) in [7] (ATCC8739, 24 h); 300 µg/mL (≈ 2 mM) in data set [8] (ATCC35984, 24 h); 600 µg/mL (≈ 3.99 mM) in [9] (ATCC29213, 24 h); 5000 µg/mL (≈ 33.3 mM) in data set [10] (ATCC9027, 24 h). Moreover, the “BEC as multiple of MIC” value was 64MIC in data set [2] (E. coli ATCC 8739), 2MIC in data set [3] (S. epidermidis ATCC 35984), “MFC” in data set [4] (C. albicans ATCC 10231) and 2MIC in [6] (P. aeruginosa ATCC 9027). The “BIC as multiple of MIC” value in data set [2] (E. coli ATCC 8739) was 64MIC. Also, the BEC is listed as 40 mg/mL in data set [2] (E. coli ATCC 8739 established biofilm); 0.6 mg/mL in data set [3] (S. epidermidis ATCC 35984 established biofilm); 0.6 mg/mL in data set [4] (C. albicans ATCC 10231 established biofilm); 2.5 mg/mL in data set [5]; 10 mg/mL in data set [6] (P. aeruginosa ATCC 9027 established biofilm). Further, the BIC in data set [2] (E. coli ATCC 8739 established biofilm, 24 h) is reported as 40 mg/mL; in data set [3] (S. epidermidis ATCC 35984 established biofilm, 24 h) it was 0.3 mg/mL; in data set [4] (C. albicans ATCC 10231 established biofilm, 24 h), 0.3 mg/mL; in data set [5] (24 h), 1.2 mg/mL; in [6] (P. aeruginosa ATCC 9027 established biofilm, 24 h), 5 mg/mL. The MBC (commonly the lowest tested concentration that kills the bacteria rather than only halting them) in [7] (ATCC8739) was determined as 1250 µg/mL (≈ 8.32 mM); in [8] (ATCC35984), 1250 µg/mL (≈ 8.32 mM); in data set [9] (ATCC29213), 1250 µg/mL (≈ 8.32 mM); in data set [10] (ATCC9027), 10000 µg/mL (≈ 66.6 mM).

For the compound `CC(=O)N[C@@H](CS)C(=O)Oc1cc(C(C)C)ccc1C` [codrug 1, NAC-CAR], in data set [11] (25 to 0.05 mg/mL), the “hemolytic activity, maximum at the tested concentrations” value is reported as not above 40%. In addition, the minimum inhibitory concentration (MIC) in data set [1] (setting [12]) was determined as 300 µg/mL (≈ 1.02 mM); in [7] (setting [14]), 10000 µg/mL (≈ 33.9 mM); in [8] (setting [16]), 5000 µg/mL (≈ 16.9 mM); in [9] (setting [18]), 10000 µg/mL (≈ 33.9 mM); in [10] (setting [20]) it was 10000 µg/mL (≈ 33.9 mM). In data set [1] (setting [13]), the MFC came to 300 µg/mL (≈ 1.02 mM). Further, the MBC in data set [7] (setting [15]) came out at 10000 µg/mL (≈ 33.9 mM); in data set [8] (setting [17]) it was 20000 µg/mL (≈ 67.7 mM); in data set [9] (setting [19]), 10000 µg/mL (≈ 33.9 mM); in [10] (setting [21]), 10000 µg/mL (≈ 33.9 mM).

Consider `CSC[C@H](NC(C)=O)C(=O)Oc1cc(C(C)C)ccc1C` [codrug 2, N-Ac-Cys(Methyl)-CAR], for which, in data set [11], the “concentration at which hemolytic activity is over 50%” value is recorded as “over 20 mg/mL”. For the same compound, the MIC in [1] (setting [12]) came out at 5000 µg/mL (≈ 16.2 mM); in data set [7] (setting [14]) it was 10000 µg/mL (≈ 32.3 mM); in [8] (setting [16]) it was 2500 µg/mL (≈ 8.08 mM); in data set [9] (setting [18]), 10000 µg/mL (≈ 32.3 mM); in [10] (setting [20]) it was 10000 µg/mL (≈ 32.3 mM). The MFC in data set [1] (setting [13]) was determined as 5000 µg/mL (≈ 16.2 mM). Moreover, the MBC in data set [7] (setting [15]), in [8] (setting [17]), in [9] (setting [19]) and in data set [10] (setting [21]) was 10000 µg/mL (≈ 32.3 mM) throughout.

Regarding `CCSC[C@H](NC(C)=O)C(=O)Oc1cc(C(C)C)ccc1C` [codrug 3, N-Ac-Cys(Ethyl)-CAR], the “concentration at which hemolytic activity is over 50%” value in data set [11] was “over 20 mg/mL”. Also, the MIC in [1] (setting [12]) amounted to 2500 µg/mL (≈ 7.73 mM); in [7] (setting [14]) it was 10000 µg/mL (≈ 30.9 mM); in data set [8] (setting [16]) it was 10000 µg/mL (≈ 30.9 mM); in data set [9] (setting [18]), 10000 µg/mL (≈ 30.9 mM); in data set [10] (setting [20]), 10000 µg/mL (≈ 30.9 mM). The MFC in [1] (setting [13]) was determined as 2500 µg/mL (≈ 7.73 mM). For the same compound, the MBC in [7] (setting [15]), in data set [8] (setting [17]), in [9] (setting [19]) and in [10] (setting [21]) was 10000 µg/mL (≈ 30.9 mM) in each case.

For the origin of these results see paper PMC4393269, “Carvacrol Codrugs: A New Approach in the Antimicrobial Plan” (PLoS ONE, 2015).
